Test results reported in patent publication US7812053B2, “4-((phenoxyalkyl)thio)-phenoxyacetic acids and analogs” (Janssen Pharmaceuticals NV, priority 2004, dated 2010).
Where “and” joins values, the source holds several entries; their conditions need not be identical. Identical values can stand only once.

Tests used:
[1] = biological target: T1, PPARγ ligand binding domain fused to the yeast GAL4 DNA binding domain (Homo sapiens, UniProt P37231); assay: Transfection assay for PPAR receptors (GAL4-LBD luciferase reporter), PPAR gamma; type: cell-based; settings: HEK293 cells, GAL4 (UAS) luciferase reporter, 18-24 hrs
T1 construct: expressed in transfected cells; host or cells: HEK293
T1 sequence (P37231 238-503 limits assumed): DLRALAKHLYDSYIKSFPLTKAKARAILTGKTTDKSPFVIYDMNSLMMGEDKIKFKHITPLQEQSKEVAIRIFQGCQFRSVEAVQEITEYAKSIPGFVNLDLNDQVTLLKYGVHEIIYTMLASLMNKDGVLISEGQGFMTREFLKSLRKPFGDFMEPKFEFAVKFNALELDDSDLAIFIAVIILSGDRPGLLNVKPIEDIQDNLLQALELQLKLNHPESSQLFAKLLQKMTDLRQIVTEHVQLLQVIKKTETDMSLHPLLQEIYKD
Procedure: (§1) Transfection Assay Method for PPAR Receptors
(§2) HEK293 cells were grown in DMEM/F12 medium supplemented with 10% FBS and glutamine (Invitrogen) and incubated in a 5% CO2 incubator at 37° C. The cells were co-transfected using DMRIE-C reagent (Invitrogen) in serum free medium (Opti-MEM, Invitrogen) with two mammalian expression plasmids, one containing the DNA sequence coding for the ligand binding domains of either PPARα, γ or δ fused to the yeast GAL4 DNA binding domain and the other containing the promoter sequence of the yeast GAL4 (UAS) fused to the firefly luciferase cDNA reporter. The next day, the medium was changed to DMEM/F12 medium supplemented with 5% charcoal treated serum (Hyclone) and glutamine. After 6 hrs the cells were trypsinized and seeded at a density of 50,000 cells/well into 96 well plates and incubated overnight as above. The cells were then treated with test compounds or vehicle and incubated for 18-24 hrs as above. Luciferase reporter activity was measured using the Steady-Glo Luciferase Assay Kit from Promega. DMRIE-C Reagent was purchased from GIBCO Cat. No. 10459-014. OPTI-MEM I Reduced Serum Medium was purchased from GIBCO (Cat. No. 31985). Steady-Glo Luciferase Assay Kit was purchased from Promega (Part# E254B).
A variety of example compounds have been made and tested, with a range of in vitro results. […]

[2] = biological target: T2, PPARα ligand binding domain fused to the yeast GAL4 DNA binding domain (Homo sapiens, UniProt Q07869); assay: Transfection assay for PPAR receptors (GAL4-LBD luciferase reporter), PPAR alpha; type: cell-based; settings: HEK293 cells, GAL4 (UAS) luciferase reporter, 18-24 hrs
T2 construct: expressed in transfected cells; host or cells: HEK293
T2 sequence (Q07869 239-466 limits assumed): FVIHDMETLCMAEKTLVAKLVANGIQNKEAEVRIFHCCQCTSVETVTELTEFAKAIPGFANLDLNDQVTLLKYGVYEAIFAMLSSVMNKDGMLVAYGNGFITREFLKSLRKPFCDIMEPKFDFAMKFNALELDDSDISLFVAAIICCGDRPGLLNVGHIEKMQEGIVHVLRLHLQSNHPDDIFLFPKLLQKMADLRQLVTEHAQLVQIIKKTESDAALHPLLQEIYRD
Procedure: as §1, §2
(§3) A variety of example compounds have been made and tested, with a range of in vitro results. Below are representative compounds and data; in some cases, where multiple EC50's are shown, multiple measurements were taken. Naturally, different compounds in Formula (I) may have not have activities identical to any one compound below.

[3] = biological target: T3, PPARδ ligand binding domain fused to the yeast GAL4 DNA binding domain (Homo sapiens, UniProt Q03181); assay: Transfection assay for PPAR receptors (GAL4-LBD luciferase reporter), PPAR delta; type: cell-based; settings: HEK293 cells, GAL4 (UAS) luciferase reporter, 18-24 hrs; multiple values = multiple measurements
T3 construct: expressed in transfected cells; host or cells: HEK293
T3 sequence (Q03181 211-439 limits assumed): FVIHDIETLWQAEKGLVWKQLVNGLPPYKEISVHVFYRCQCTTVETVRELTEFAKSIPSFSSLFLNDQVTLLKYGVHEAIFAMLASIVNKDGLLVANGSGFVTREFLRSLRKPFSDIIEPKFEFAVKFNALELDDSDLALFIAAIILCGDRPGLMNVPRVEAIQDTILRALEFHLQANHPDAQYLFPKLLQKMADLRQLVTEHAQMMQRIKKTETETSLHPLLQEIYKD
Procedure: as §1, §2, §3

[4] = tested on: differentiated THP-1 monocytes; settings: cited from earlier work

EC50 [1] [nM] | EC50 [2] [nM] | EC50 [3] | Structure (SMILES) | ABCA1 mRNA expression [4] | cholesterol efflux [4]
278 | 237 | 9.1 nM and 11.1 nM | CCC(COc1ccc(C(F)(F)F)cc1)CSc1ccc(OC(C)(C)C(=O)O)c(C)c1 (stereo not shown) [Compound 2, 2-Methyl-2-{2-methyl-4-[2-(4-trifluoromethyl-phenoxymethyl)-butylsulfanyl]-phenoxy}-propionic acid] | – | –
565 | 537 | 34 nM and 27.5 nM | CCOC(COc1ccc(C(F)(F)F)cc1)CSc1ccc(OC(C)(C)C(=O)O)c(C)c1 (stereo not shown) [Compound 3, 2-{4-[2-Ethoxy-3-(4-trifluoromethyl-phenoxy)-propylsulfanyl]-2-methyl-phenoxy}-2-methyl-propionic acid] | – | –
– | – | – | Cc1cc(SCc2sc(-c3ccc(C(F)(F)F)cc3)nc2C)ccc1OCC(=O)O [GW501516] | induced ABCA1 mRNA expression | enhanced cholesterol efflux
– | 548 | 13.8 nM and 14.9 nM | CCC(COc1ccc(C(F)(F)F)cc1)CSc1ccc(OC(C)C(=O)O)c(C)c1 (stereo not shown) [Compound 1, 2-{2-Methyl-4-[2-(4-trifluoromethyl-phenoxymethyl)-butylsulfanyl]-phenoxy}-propionic acid] | – | –
